Experimental findings from patent US12257253B2, “Triamterene or nolatrexed for use in the treatment of phenylketonuria” (SOM INNOVATION BIOTECH, S.A., priority 2019, dated 2025) are described below.

Structures are written as SMILES. Counter-ions that a name gives are not always drawn.

What all share (type): cell-based
Assay [1] addresses T1, Arg261Gln (R261Q) PAH (Homo sapiens (Human), UniProt P00439, R261Q). As to the kind of experiment: Phenylalanine hydroxylase residual protein amount (dot blot, COS-7 lysates). Conditions: COS-7, 48 h, COS-7 cells, compound 10 μM (sepiapterin 5 μM), read-out: PAH protein level (immune blot signal) R261Q PAH Mean. The procedure:
(§1) 3. Phenylalanine Hydroxylase Residual Protein Amount
(§2) The analysis of the residual PAH protein amount was based on the method described in Gersting S. W. et al., Human Molecular Genetics, 2010, 19(10), 2039-2049 with modifications.
(§3) Detection of the residual PAH protein amount was performed as a dot blot using the lysates obtained from the cell culture where transiently transfected COS-7 cells (with wild-type PAH or PAH variant) were exposed for 48 h to compounds. The experiment was carried out from the same samples as used for measuring enzyme activities.
(§4) 2 μl of the lysate were dropped onto the nitrocellulose membrane. The membrane was allowed to air dry at room temperature for 30 min followed by 40 min blocking in 5% milk in TBS-Tween (room temperature). The membrane was incubated with the mouse monoclonal primary antibody specific for PAH (Millipore, Cat. No. MAB5278, 1:1000 dilution in 5% milk in TBS-Tween) for overnight at 4° C. Next, the membrane was washed (3×10 min in TBS-Tween) and incubated with the secondary HRP-conjugated antibody (anti-mouse antibody; Santa Cruz Biotechnology, Inc., Cat. No. sc-2005; 1:1000 dilution in 5% milk in TBS-Tween) followed by thorough washing in TBS-Tween (3×10 min) and distilled water (1×10 min). Blots were visualized with Pierce™ ECL substrate (ThermoFisher Scientific, Cat No. 32106) and chemiluminescence was monitored with a DIANA III Imaging system or ChemiDoc™ MP Imaging System (BioRad). To analyze the compound effect on the PAH protein amount densitometry analysis was performed using ImageJ Software.
(§5) The effect of compound on PAH protein amount was calculated from triplicates. As for determination of the enzyme activity the background of the not transfected cells (NT) was subtracted from the transfected cells (NCC or compound treated). In the next step delta of the NCC versus compound treated cells was calculated. Residual protein amount greater than 100% represents an increase in the stability of the enzyme with respect to NCC.

The target of assay [2] is T2, wild-type PAH (Homo sapiens (Human), UniProt P00439). The assay is described as above. As to conditions: COS-7, 48 h, COS-7 cells, compound 10 μM (sepiapterin 5 μM), read-out: PAH protein level (immune blot signal) WT PAH Mean. On the procedure: as §1, §2, §3, §4, §5
For assay [3], the target named is T1, Arg261Gln (R261Q) PAH. The assay is described as follows: Phenylalanine hydroxylase enzyme activity assay in transfected COS7 cells. Conditions: compound 10 μM (sepiapterin 5 μM), 48 h. The procedure:
(§6) 2. Phenylalanine Hydroxylase Enzyme Activity Assay
(§7) This assay was completed in cell culture to analyze the enzyme activity in the presence of compounds. In brief, wild-type or Arg261Gln PAH constructs were transiently expressed in COS7-cells in a 96 well format reflecting the PAH genotype (COS7 cell line has no endogenous PAH). Cells were treated with the compounds at a final concentration of 10 μM and the enzyme activity of PAH was analyzed 48 h after transfection. The effect of the compounds on the residual enzyme activity was determined in comparison to non-treated cells (NCC, only compound solvent final 0.1%). To normalize the cellular background signal non transfected cells (NT control) were treated with compound or solvent equally for 48 h. As a positive control we used sepiapterin, a stable precursor of BH4 (CAS 17094-01-8), stabilized in 100 mM DTT, in a final concentration of 5 μM.
(§8) PAH activities were assayed at 25° C. as previously described (Gersting, S. W., J. Biol. Chem., 2010, 285(40), 30686-30697) with modifications. The standard mixture contained 22.35 mM NaHepes, pH 7.0, […] catalase, 10 μM ferrous ammonium sulphate, and 1 mM L-Phe (L-phenylalanine) final. Assay mixture and cell culture enzyme were pre-incubated for 5 min and the reaction was initiated by the addition of 75 μM BH4 (stabilized in 100 mM dithiothreitol) final, run for 60 min and stopped by acetic acid. The amount of L-tyrosine production was measured and quantified by HPLC, assayed as triplicates.
(§9) The effect of compound on PAH enzyme activity was calculated from triplicates as follows: first the background of the NT cells were subtracted from the transfected cells (treated or NCC) and then the percentage of treated (compound) versus NCC was determined. Enzyme activity greater than 100% represents an increase in the enzyme activity with respect to NCC.

Assay [4] concerns the target T2, wild-type PAH. Described as above. As to conditions: compound 10 μM (sepiapterin 5 μM), 48 h. On the procedure:
as §6, §7, §8, §9

T1 sequence (P00439 whole entry R261Q): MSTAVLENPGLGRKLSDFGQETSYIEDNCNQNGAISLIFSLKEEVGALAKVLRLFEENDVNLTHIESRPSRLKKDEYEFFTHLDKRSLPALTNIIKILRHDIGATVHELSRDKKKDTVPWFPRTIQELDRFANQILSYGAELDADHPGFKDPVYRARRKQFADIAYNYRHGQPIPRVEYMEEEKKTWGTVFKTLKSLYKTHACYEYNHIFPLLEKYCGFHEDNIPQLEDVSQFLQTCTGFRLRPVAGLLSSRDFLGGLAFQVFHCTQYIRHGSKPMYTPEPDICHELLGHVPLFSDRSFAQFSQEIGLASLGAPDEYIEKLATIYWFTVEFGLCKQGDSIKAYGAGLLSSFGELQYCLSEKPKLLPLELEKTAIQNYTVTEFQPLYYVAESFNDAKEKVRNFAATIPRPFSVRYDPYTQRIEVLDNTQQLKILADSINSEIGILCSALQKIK
T2 sequence (P00439 whole entry): as the sequence (P00439 whole entry R261Q) above, with Q261R counted along it

`Cc1ccc2[nH]c(N)nc(=O)c2c1Sc1ccncc1` [Nolatrexed 2HCl, 2-amino-6-methyl-5-(4-pyridylthio)-4(3H)-quinazolinone]: the results for the PAH protein level (% of control) at 10 µM on Arg261Gln (R261Q) PAH [1] and at wild-type PAH [2] were 256% and 108%, respectively. Moreover, the “PAH enzyme activity (L-Tyrosine formation) R261Q PAH Mean” value at Arg261Gln (R261Q) PAH [3] turned out to be 531.60 % NCC. In addition, at wild-type PAH [4], the “PAH enzyme activity (L-Tyrosine formation) WT PAH Mean” value is listed as 284.15 % NCC.
Turning to `C[C@H](O)C(=O)C1=Nc2c([nH]c(N)nc2=O)NC1` [Sepiapterin, S-(−)-2-amino-7,8-dihydro-6-(2-hydroxy-1-oxopropyl)-4(1H)-pteridinone], the PAH protein level (% of control) at 10 µM at wild-type PAH [2] turned out to be 106%. Also, the “PAH enzyme activity (L-Tyrosine formation) R261Q PAH Mean” value on Arg261Gln (R261Q) PAH [3] is reported as 2089.79 % NCC. For the same molecule, the “PAH enzyme activity (L-Tyrosine formation) WT PAH Mean” value at wild-type PAH [4] is 297.14 % NCC.
With `CCN1CCCC1CNC(=O)c1cc(S(=O)(=O)CC)ccc1OC` (stereo not drawn) [Sultopride HCl, N-[(1-ethyl-2-pyrrolidinyl)methyl]-5-(ethylsulfonyl)-o-anisamide], at Arg261Gln (R261Q) PAH [3], the “PAH enzyme activity (L-Tyrosine formation) R261Q PAH Mean” value amounted to 131.23 % NCC. For the same molecule, the “PAH enzyme activity (L-Tyrosine formation) WT PAH Mean” value on wild-type PAH [4] came to 104.71 % NCC.
